Assay results reported in US20050288369A1, “Novel n-hydroxy thiourea, urea and amide compounds and the pharmaceutical compositions comprising the same” (priority 2002, published 2005).
Values belong to the compound of their own block, whether it stands above or below them.

Experiments:
[1] = biological target: T1, VR1 (Rattus norvegicus, UniProt O35433); assay: 45Ca influx test in CHO cells expressing VR1, antagonistic activity against 50 nM capsaicin; assay type: cell-based; settings: 45Ca uptake stimulated with 50 nM capsaicin
T1 construct: expressed in transfected cells; host or cells: Chinese Hamster Ovary cells (CHO, ATCC CCL-61), Tet-off inducible expression
Procedure: (§1) The ^45Ca Influx test by using CHO cells of the inventive compounds was measured by using Chinese Hamster Ovary (CHO, ATCC, No. CCL-61) cell whose cDNA of VR1 (pUHG102 VR1 plasmid) was transfected, which can control the expression of VR1 according to the presence of tetracycline and Tetracycline on/off system (pTet off regulatory plasmid, Clontech. Inc., USA) that the expression of VR1 is induced by removing tetracycline from the medium.
(§2) The CHO cells were poured onto 24 well plates to the extent that its density reaches at 30% and incubated for 24 hours at 37° C. The culture medium was exchanged to tetracycline free medium to induce the expression of VR1 and tested after 36 hours.
(§3) Together with 0.25 mg/ml BSA (Sigma A2153, USA), 1 Ci/ml ^45Ca(5-30 Ci/g used, ICN. Co., 62005 RT, U.S.A.), the test samples with increasing concentrations were added to each well. At the quenching moment of the incubation with ^45Ca, the cultured cells were removed from the medium, washed three times with cool PBS buffer solution containing 1.8 mM CaCl2 and 400 μl of RIPA buffer solution (50 mM Tris pH 7.4; 150 mM sodium chloride; 0.1% SDS; 1% sodium deoxycholate), was added in each well to homogenize the cells. The plates were stirred for 20 minutes slowly and 300 μl of cell lysate was transferred to scintillation vials from each wells. The radioactivity was determined by scintillation counter.
(§4) The data were assessed by determining four wells per each data point in each experiment and analyzed in computer by being transformed into Hill equation. The experiments were determined in triplicate in each sample comprising inventive compounds and control groups.
In order to determine the antagonistic activity, ^45Ca^2+-uptake stimulating-mixture was added with 50 nM capsaicin and the antagonistic activity was determined by the method for the agonistic activity. In case that 10 μM a certain compound cannot change the capsaicin-inducing activity, the compound shall be regarded as an […].

[2] = biological target: T2, vanilloid receptor-1 (VR1) (Rattus norvegicus, UniProt O35433); assay: [3H]RTX competition binding assay, VR1-expressing CHO cells; settings: displacement of bound [3H]RTX; mean±SEM, 3 experiments
T2 construct: expressed in transfected cells; host or cells: Chinese Hamster Ovary cells (CHO, ATCC CCL-61), Tet-off inducible expression
Procedure: The binding affinity activity of the target compounds for vanilloid receptor-1 was measured by an in vitro receptor binding affinity assay. In the receptor binding assay, the compounds were evaluated for their ability to displace bound [^3H]RTX from the receptor. The results are expressed in terms of Ki values (mean±SEM, 3 experiments) which represent the concentration of the non-radioactive ligand that displaces half of the bound labeled RTX.
The VR receptor binding affinity activity of the inventive compounds was measured by using Chinese Hamster Ovary (CHO, ATCC, No. CCL-61) cell whose cDNA of VR1 (pUHG102 VR1 plasmid) was transfected, which can control the expression of VR1 according to the presence of tetracycline and Tetracycline on/off system (pTet off regulatory plasmid, Clontech. Inc., USA) that the expression of VR1 is induced by removing tetracycline from the medium. […] The cells were cultured after removing tetracycline prior to 48 hours. The tetracycline free culture medium was seeded at the bottom of T75 flask, incubated to the extent that its density reaches at 90%, and washed once with PBS buffer solution. The cells were collected by using saline solution containing 5 mM EDTA and subjected to centrifugation slightly to obtain precipitates, further, which had been kept at the temperature of −20° C. before use.
Experiments were designed to assess inhibition of specific [^3H]RTX binding to membranes by non-radioactive compounds. The binding assay mixture containing [^3H]RTX ([…]), various concentrations of competitive binding substances, 0.25 mg/ml of BSA (Cohn fraction V), 5×10^4 ˜5×10^5 numbers of VR1 and the expression cell, was admixed with saline solution containing 450 μl of Ca^2+ and Mg^2+ and […] of BSA. Non-specific binding assay was measured after mixing 100 nM of non-radioactive RTX thereto. The reaction mixture was treated for 60 min at 37° C. and the reaction was quenched by cooling over ice. RTX bound to the membrane of VR1 was subjected to centrifugation with maximum velocity for 15 minutes to precipitate its membrane residue, which results in separating from non-binding RTX. The tips of tube containing above precipitate was cut off and the amount of bound radioisotope was determined by scintillation counter (LS6500, Beckman-Coulter, USA). The measurement of binding was determined in triplicate in each experiment, and each experiment was repeated at least two times. Binding data were analyzed by fitting to the Hill equation and the Ki (equilibrium binding parameter) index, the Bmax (maximum binding parameter) index, and the cooperativity index etc., were determined by using origin 6.0 program (Origin, MicroCal Co., USA).
An initial compound was dissolved in DMSO (dimethyl sulfoxide) and diluted with saline solution containing Ca^2+ and […], and […] of BSA.

[3] = biological target: T1, VR1; assay: 45Ca influx test in CHO cells expressing VR1, agonistic activity; assay type: cell-based; settings: 45Ca uptake
Procedure: The ^45Ca Influx test by using CHO cells expressing VR1 was performed by the procedure described in the literature (Lee, J. W., Bioorganic & Medicinal Chemistry, pp 1713-1720, 2001).
as §1, §2
as §3, with “In radioactive ^45Ca uptake experiment, The cells were incubated in […] of DMEM medium (Dulbecco's modified Eagles medium: Gibco-BRL, 31600-083) containing free of serum and 1.8 mM CaCl2 for 10 minutes at 37*C. Together” for “Together”
as §4

[4] = tested on: Male ICR mice; assay: Acetic acid-induced writhing test; assay type: in vivo; settings: Mus musculus, ip; i.p. 30 mins before 1.2% acetic acid i.p.; 50% reduction of the number of writhes
Procedure: The acetic acid-induced writhing test for testing the analgesic activity of inventive compounds prepared from above Examples was performed by the procedure described in the literature (Lee, J. W., Bioorganic & Medicinal Chemistry, pp 1713-1720, 2001).
Male ICR mice having its mean body weight of 25 g (CD-1; Biogenomics Co. Korea) were reared in lighting controlled environment (12 hrs on/12 hrs off) maintaining with temperatures at 22±2° C. and humidity at 50±5% and allowed to eat a diet and to drink tap water ad lib.
Mice were fasted overnight prior to testing and adopted to the environment.
0.3 ml of acetic acid solution (1.2%) was administrated in the mice intraperitoneally and then the mice were put into the transparent acryl box (15×15×15 cm). 5 minutes later, the number of abdominal constrictions was counted for 20 minutes. Each group consisting of ten mice was pretreated with test compounds or solvent (0.2 ml, i.p.) 30 mins before the injection of acetic acid. Test compounds were dissolved in the mixture of ethanol/Tween-80/saline ([…]) or cremophor EL/DMSO/d-water ([…]).
Analgesic activity of each drug was determined at several different concentrations.
The index of analgesic activity (eff) was defined as below Empirical formula 1. Analgesic activity (eff)=100−{(No. of abdominal constriction of test group/No. of abdominal constriction of control group)×100} [Empirical formula 1]
Analgesic activity was expressed as the reduction in the number of abdominal constrictions, of control animals (vehicle-pretreated mice) and animals pretreated with test compounds.

T1 sequence (O35433 whole entry): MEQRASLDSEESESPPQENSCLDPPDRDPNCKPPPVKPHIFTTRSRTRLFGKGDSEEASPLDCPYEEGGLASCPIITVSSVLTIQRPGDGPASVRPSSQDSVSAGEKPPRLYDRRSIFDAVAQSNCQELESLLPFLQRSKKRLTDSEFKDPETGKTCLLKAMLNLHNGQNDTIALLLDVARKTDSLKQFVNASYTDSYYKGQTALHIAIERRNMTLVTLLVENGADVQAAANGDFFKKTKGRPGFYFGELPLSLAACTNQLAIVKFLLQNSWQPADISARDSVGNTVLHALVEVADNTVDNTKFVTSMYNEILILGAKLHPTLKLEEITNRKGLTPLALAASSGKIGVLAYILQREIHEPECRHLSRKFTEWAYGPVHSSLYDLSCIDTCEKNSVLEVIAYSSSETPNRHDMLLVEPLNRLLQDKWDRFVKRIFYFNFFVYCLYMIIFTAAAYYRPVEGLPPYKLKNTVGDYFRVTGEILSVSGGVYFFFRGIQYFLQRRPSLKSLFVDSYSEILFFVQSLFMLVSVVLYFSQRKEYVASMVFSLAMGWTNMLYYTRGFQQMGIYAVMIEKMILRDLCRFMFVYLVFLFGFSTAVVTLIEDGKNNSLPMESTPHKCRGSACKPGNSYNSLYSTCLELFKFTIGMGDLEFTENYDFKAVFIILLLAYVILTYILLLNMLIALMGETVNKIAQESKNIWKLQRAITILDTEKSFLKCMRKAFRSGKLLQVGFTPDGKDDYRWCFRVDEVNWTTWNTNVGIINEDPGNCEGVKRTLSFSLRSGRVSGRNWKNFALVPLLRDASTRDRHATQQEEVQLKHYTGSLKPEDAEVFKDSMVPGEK
T2 sequence (O35433 whole entry): as above

- IC50 [1]: 520 nM
- Ki [2]: 1350 nM
Structure (SMILES): Oc1cc2c(cc1O)CN(C(=S)NCCc1ccc(Cl)cc1)CCC2 [Capsazepine, reference compound]

Structure (SMILES): CC(C)(C)c1ccc(CN(O)C(=S)NCc2ccc(NS(C)(=O)=O)c(Cl)c2)cc1 [Compound 31, N-(4-tert-butylbenzyl)-N-hydroxy-N-[3-chloro-4-(methylsulfonylamino)benzyl]thiourea]
- IC50 [1]: 579 nM
- Ki [2]: 1310 nM

Structure (SMILES): CC(C)(C)c1ccc(CN(O)C(=S)NCc2ccc(NS(C)(=O)=O)c([N+](=O)[O-])c2)cc1 [Compound 32, N-(4-tert-butylbenzyl)-N-hydroxy-N-[4-(methylsulfonylamino)-3-nitrobenzyl]thiourea]
- IC50 [1]: 635 nM

Structure (SMILES): CC(C)(C)c1ccc(CN(O)C(=S)NCc2ccc(NS(C)(=O)=O)cc2F)cc1 [Compound 33, N-(4-tert-butylbenzyl)-N-hydroxy-N-[2-fluoro-4-(methylsulfonylamino)benzyl]thiourea]
- EC50 [3]: 12300 nM
- Ki [2]: 1920 nM

Structure (SMILES): CC(C)(C)c1ccc(CN(O)C(=S)NCc2ccc(NS(C)(=O)=O)cc2Cl)cc1 [Compound 34, N-(4-tert-butylbenzyl)-N-hydroxy-N-[2-chloro-4-(methylsulfonylamino)benzyl]thiourea]
- Ki [2]: 2270 nM

Structure (SMILES): COc1cc(CNC(=S)N(O)CC(COC(=O)C(C)(C)C)Cc2ccc(C)c(C)c2)ccc1NS(C)(=O)=O (stereo not drawn) [Compound 36, N-[2-(3,4-dimethylbenzyl)-3-(pivaloyloxy)propyl]-N-hydroxy-N-[3-methoxy-4-(methylsulfonylamino)benzyl]thiourea]
- EC50 [3]: 809 nM
- Ki [2]: 396 nM

Structure (SMILES): Cc1ccc(CC(COC(=O)C(C)(C)C)CN(O)C(=S)NCc2ccc(NS(C)(=O)=O)cc2F)cc1C (stereo not drawn) [Compound 38, N-[2-(3,4-dimethylbenzyl)-3-(pivaloyloxy)propyl]-N-hydroxy-N-[2-fluoro-4-(methylsulfonylamino)benzyl]thiourea]
- EC50 [3]: 1350 nM

Structure (SMILES): Cc1ccc(CC(COC(=O)C(C)(C)C)CN(O)C(=S)NCc2ccc(NS(C)(=O)=O)cc2Cl)cc1C (stereo not drawn) [Compound 39, N-[2-(3,4-dimethylbenzyl)-3-(pivaloyloxy)propyl]-N-hydroxy-N-[2-chloro-4-(methylsulfonylamino)benzyl]thiourea]
- IC50 [1]: 757 nM
- Ki [2]: 221 nM

Structure (SMILES): CC(C)(C)C(=O)OCC(Cc1ccc(C(C)(C)C)cc1)CN(O)C(=S)NCc1ccc(NS(C)(=O)=O)cc1 (stereo not drawn) [Compound 40, N-[2-(4-tert-butylbenzyl)-3-(pivaloyloxy)propyl]-N-hydroxy-N-[4-(methylsulfonylamino)benzyl]thiourea]
- EC50 (nM) (VR1/CHO) [3]: weak
- Ki [2]: 536 nM

Structure (SMILES): CC(C)(C)C(=O)OCC(Cc1ccc(C(C)(C)C)cc1)CN(O)C(=S)NCc1ccc(NS(C)(=O)=O)c(F)c1 (stereo not drawn) [Compound 41, N-[2-(4-tert-butylbenzyl)-3-(pivaloyloxy)propyl]-N-hydroxy-N-[3-fluoro-4-(methylsulfonylamino)benzyl]thiourea]
- IC50 (nM) (VR1/CHO) [1]: Weak
- EC50 (nM) (VR1/CHO) [3]: Weak
- Ki [2]: 405 nM

- IC50 (nM) (VR1/CHO) [1]: Weak
- EC50 (nM) (VR1/CHO) [3]: Weak
- Ki [2]: 481 nM
Structure (SMILES): Cc1ccc(CC(CNC(=S)N(O)Cc2ccc(NS(C)(=O)=O)cc2)COC(=O)C(C)(C)C)cc1C (stereo not drawn) [Compound 61, N-[2-(3,4-dimethylbenzyl)-3-(pivaloyloxy)propyl]-N-hydroxy-N-[4-(methylsulfonylamino)benzyl]thiourea]

- EC50 [3]: 1960 nM
- Ki [2]: 5310 nM
Structure (SMILES): CC(C)(C)c1ccc(CC(=O)N(O)Cc2ccc(NS(C)(=O)=O)cc2)cc1 [Compound 63, N-hydroxy-N-[4-(methylsulfonylamino)benzyl]-2-(4-tert-butylphenyl)acetamide]

- EC50 (nM) (VR1/CHO) [3]: Weak
- Ki [2]: 546 nM
Structure (SMILES): Cc1ccc(CC(CNC(=S)N(O)Cc2ccc(NS(C)(=O)=O)c(F)c2)COC(=O)C(C)(C)C)cc1C (stereo not drawn) [Compound 64, N-[2-(3,4-dimethylbenzyl)-3-(pivaloyloxy)propyl]-N-hydroxy-N-[3-fluoro-4-(methylsulfonylamino)benzyl]thiourea]

Structure (SMILES): Cc1ccc(CC(CNC(=S)NCc2ccc(NS(C)(=O)=O)cc2)COC(=O)C(C)(C)C)cc1C (stereo not drawn) [JYL-827, reference compound]
- ED50 [4]: 2.62 µg/kg

Structure (SMILES): Cc1ccc(CC(CNC(=S)NCc2ccc(NS(C)(=O)=O)c(F)c2)COC(=O)C(C)(C)C)cc1C (stereo not drawn) [JYL-1433, reference compound]
- ED50 [4]: 7.43 µg/kg

Structure (SMILES): CC(C)(C)c1ccc(CNC(=S)NCc2ccc(NS(C)(=O)=O)cc2)cc1 [KJM-429, reference compound]
- ED50 [4]: 1410 µg/kg

Structure (SMILES): O=C(c1ccccc1)c1ccc2n1CCC2C(=O)O (stereo not drawn) [Ketorolac, reference compound]
- ED50 [4]: 2820 µg/kg

Structure (SMILES): CC(C)(C)c1ccc(CNC(=S)NCc2ccc(NS(C)(=O)=O)c(F)c2)cc1 [SC-0030, reference compound]
- ED50 [4]: 1.26 µg/kg
